# Data taken from patent US20190255042A1, “APPLICATION OF HEDGEHOG PATHWAY INHIBITOR IN TREATING FIBROSIS DISEASES” (IMPACT THERAPEUTICS, INC, priority 2016, published 2019).
# How the values were obtained:
# [1] = tested on: unilateral pulmonary fibrosis model in SD rats; assay: Therapeutic efficacy in unilateral pulmonary fibrosis model in SD rats (bleomycin, dosing from D8); type: in vivo; parameters: Evaluation of injury and inflammatory lesions of left lung: Fibrotic lesion edge / Evaluation of injury and inflammatory lesions of left lung: Fibrosis lesion: scale not given here; conditions: for Expression of Type I collagen (%) / Expression of α-SMA protein (%): left lung immunohistochemistry; for Evaluation of injury and inflammatory lesions of left lung: Fibrosis lesion / Evaluation of injury and inflammatory lesions of left lung: Fibrotic lesion edge: HE score; for Fibrosis area (left pulmonary): Masson trichrome
# Method: On the modeling day, rats were anesthetized and exposed to trachea. Bleomycin was injected into left trachea of each group (dosage: 3 mg/kg, volume: 1.0 ml/kg). Oral administration was performed on Day 8 after modeling, once a day. On Day 22, according to the KCI animal euthanasia SOP, animals in each group were given an overdose of sodium barbiturate and sacrificed under intraperitoneal anesthesia, the left lung was taken, the weight and volume of the left lung were measured, then fixed by formalin, the bronchioles were stained with HE, Masson trichrome. The bronchioles, final bronchiole and small pulmonary artery injury and inflammation invasion were evaluated by semi-quantitative score, and pulmonary fibrosis was evaluated by Ashcraft semi-quantitative score. Immunohistochemical staining of α-SMA, Type I collagen (Collagen-I) were performed at the same time, a full scan was performed by Hamamatsu NanoZoomer Digital Pathology (S210), the α-SMA positive area was semiquantitatively calculated from the unit area of the whole sheelt in pulmonary fibrosis foci, and the positive staining area of type-I collagent per unit of area was calculated.
# [2] = tested on: foodborne non-alcoholic fatty hepatitis (NASH) model in mice; conditions: Hirsova et al., Plos One 2013; cited from earlier work
# [3] = tested on: bleomycin-induced lung injury in a mouse model; conditions: Moshai et al., 2014; cited from earlier work
# [4] = tested on: unilateral pulmonary fibrosis model in SD rats; assay: Prophylactic therapeutic efficacy in unilateral pulmonary fibrosis model in SD rats (bleomycin); type: in vivo; parameters: key to Fibrosis score (Ashcraft): Ashcraft semi-quantitative fibrosis score; Evaluation of injury and inflammatory lesions of left lung: Fibrotic lesion edge / Evaluation of injury and inflammatory lesions of left lung: Fibrosis lesion: scale not given here
# Method: 40 male SD rats were randomized into Model group (Group 1, n=8), positive drug group BIBF1120 60 mg/kg/d group (Group 2, n=8), Compound A 5 mg/kg/d group (Group 3, n=8), compound A 10 mg/kg/d group (Group 4, n=8) and Compound A 20 mg/kg/d (Group 5, n=8). On the modeling day, rats were anesthetized and exposed to trachea. Bleomycin was injected into trachea of each group (dosage: 3 mg/kg, volume: 1.0 ml/kg). Oral administration was performed 2 hours after modeling, once a day. On Day 15, all the animals were killed, the left lung was taken, the weight and volume of the left lung were measured, then fixed by formalin, the bronchioles were stained with HE, Masson trichrome. The bronchioles, final bronchiole and small pulmonary artery injury and inflammation invasion were evaluated by semi-quantitative score, and pulmonary fibrosis was evaluated by Ashcraft semi-quantitative score.
# [5] = tested on: lung fibrosis model in mice induced by bleomycin; assay: Therapeutic efficacy in lung fibrosis model in mice induced by bleomycin; type: in vivo, C57BL/6 mice; conditions: n = 10, Mean ± Sem
# Method: Experimental Methods: 60 male C57BL/6 mice were randomize into 6 groups: Blank control group (Group 1, n=10), model group (Group 2, BLM, n=10), Compound A 10 mpk group (Group 3, n=10), compound A 20 mpk group (Group 4, n=10), Compound A 20 mpk +BIBF1120 50 mpk (Group 5, n=10), and BIBF1120 50 mpk positive reference group (Group 6, n=10). One week after the mice were acclimated to the environment, 10 mice in the blank control group were given 50 μl of normal saline in the trachea, and other 50 mice were given 50 μl BLM (0.66 mg/kg, 2 ml/kg) in the trachea. After BLM infusion, 50 mice in BLM infusion group were randomly assigned to start treatment on the 5th day, once a day, with a treatment cycle of 20 days. The whole process was 25 days. After the experiment, the lung tissues were fixed in 10% neutral formalin, dehydrated by alcohol gradient, embedded with paraffin, stained by hematoxylin-eosin (H&E) and Masson trichrome staining. And the inflammatory area and degree of fibrosis of the lung tissues in mice were evaluated by APERIO ScanScope. Immunohistochemical staining of lung tissue was performed to quantify α-SMA positive fibroblasts in lung tissue and to calculate the percentage (%) of α-SMA staining in the entire lung stroma.
# [6] = 50 mpk oral D8 to D22, mean ± sem, n = 8
# [7] = 50 mpk oral D8 to D22 after modeling, mean ± sem
# [8] = 60 mg/kg/d oral from modeling day, D15, HE score, mean ± sem, n = 8
# [9] = 60 mg/kg/d oral from modeling day, D15, mean ± sem, n = 8
# [10] = 100 mpk oral D8 to D22, mean ± sem, n = 6
# [11] = 100 mpk oral D8 to D22 after modeling, mean ± sem
smiles,measurement,setting,value
"CS(=O)(=O)c1ccc(C(=O)Nc2ccc(Cl)c(-c3ccccn3)c2)c(Cl)c1 [GDC0449, vismodegib, reference compound]",damage and inflammatory response of terminal bronchioles within fibrosis lesions and pulmonary small artery compared with model group,"[1]; 14 consecutive days, BIBF1120 100, Compound A 5, 15, 30, GDC0449 50 mg/kg/d, p<0.001",significantly reduced
same,Expression of Type I collagen (%),[1]; [6],19.06 ± 0.70%
same,Expression of α-SMA protein (%),[1]; [6],7.74 ± 0.59%
same,Evaluation of injury and inflammatory lesions of left lung: Fibrosis lesion,[1]; [7],6.38 ± 0.17
same,Evaluation of injury and inflammatory lesions of left lung: Fibrotic lesion edge,[1]; [7],4.80 ± 0.22
same,Fibrosis area (left pulmonary),[1]; [7],67.96 ± 3.70
same,Fibrosis Score 1-3 (%),[1]; [7],95.00 ± 2.67%
same,Fibrosis Score 4-8 (%),[1]; [7],5.00 ± 2.67%
same,Fibrosis score (Ashcraft),[1]; [7],2.16 ± 0.11
same,Weight of left lung,[1]; [7],1.29 ± 0.09 g
same,degree of pulmonary fibrosis (Ashcraft score) compared with model group,"[1]; BIBF1120 100, Compound A 5, 15, 30, GDC0449 50 mg/kg/d, p<0.01",significantly better
same,amount of Type I collagen deposition in the fibrotic lesions compared with model group,"[1]; BIBF1120 100 mpk, Compound A 5 mpk, GDC0449 50 mpk",no significant difference
same,positive rate of α-SMA in fibrosis lesions per unit area compared with model group,"[1]; BIBF1120 100 mpk, GDC0449 50 mpk",no significant difference
same,treatment effect on fibrosis compared with BIBF1120 100 mg/kg/d,"[1]; compound A 5, 15 and 30 mg/kg, GDC0449 50 mg/kg/d, 14 consecutive days",the same as that of BIBF1120
same,"effect on liver injury, hepatic inflammation and fibrosis",[2],attenuating hepatic inflammation and fibrosis
same,efficacy on pulmonary fibrosis,[3],no efficacy
"COC(=O)c1ccc2c(c1)NC(=O)/C2=C(\Nc1ccc(N(C)C(=O)CN2CCN(C)CC2)cc1)c1ccccc1 [BIBF1120, Nintedanib ethylsulfonate, reference compound]",Evaluation of injury and inflammatory lesions of left lung: Fibrosis lesion,[4]; [8],7.88 ± 0.48
same,Evaluation of injury and inflammatory lesions of left lung: Fibrotic lesion edge,[4]; [8],5.50 ± 0.25
same,Fibrosis area (left pulmonary fibrosis),"[4]; 60 mg/kg/d oral from modeling day, D15, Masson trichrome, mean ± sem, n = 8",77.85 ± 10.90
same,Fibrosis Score 1-3 (%),[4]; [9],75.00 ± 23.90%
same,Fibrosis Score 4-8 (%),[4]; [9],25.00 ± 23.90%
same,Fibrosis score (Ashcraft),[4]; [9],3.15 ± 0.65
same,Volume of left lung,[4]; [9],1.24 ± 0.17 cm^3
same,Weight of left lung,[4]; [9],1.18 ± 0.14 g
same,average score of fibrosis in the entire fibrosis lesion (ashcraft),"[4]; BIBF1120 60 mg/kg/d, compound A 5, 10, 20 mg/kg/d",about 3 points
same,Expression of Type I collagen (%),[1]; [10],18.99 ± 1.19%
same,Expression of α-SMA protein (%),[1]; [10],7.36 ± 0.55%
same,Evaluation of injury and inflammatory lesions of left lung: Fibrosis lesion,[1]; [11],7.00 ± 0.36
same,Evaluation of injury and inflammatory lesions of left lung: Fibrotic lesion edge,[1]; [11],5.31 ± 0.28
same,Fibrosis area (left pulmonary),[1]; [11],73.81 ± 1.14
same,Fibrosis Score 1-3 (%),[1]; [11],88.33 ± 4.01%
same,Fibrosis Score 4-8 (%),[1]; [11],11.67 ± 4.01%
same,Fibrosis score (Ashcraft),[1]; [11],2.55 ± 0.18
same,Volume of left lung,[1]; [11],1.23 ± 0.09 cm^3
same,Weight of left lung,[1]; [11],1.31 ± 0.09 g
same,Inflammatory infiltration area,[5]; 50 mpk oral D5 to D25,4.33 ± 1.39 mm^2
same,Total lung tissue area,[5]; 50 mpk oral D5 to D25,87.02 ± 4.05 mm^2
same,Percentage of inflammatory area (%),"[5]; 50 mpk oral D5 to D25, ###p < 0.001 vs. BLM model group",4.67 ± 1.32^### %
same,Percentage of positive α-SMA (%),"[5]; BIBF1120 50 mpk oral D5 to D25, lung tissue immunohistochemical staining",0.96 ± 0.20%
CN(C)c1ccccc1CN1CCCN(Cc2ccccc2N(C)C)C1c1ccncc1 [GANT61],efficacy on pulmonary fibrosis,[3],good therapeutic effect
